Reference: article PMC8861050, “Design, synthesis and evaluation of novel 2-oxoindoline-based acetohydrazides as antitumor agents” (Scientific Reports, 2022)
One block for each compound: values may come before it.

Experiments:
SW620 (colon cancer) = experiment: SRB cytotoxicity assay, SW620; assay type: cell-based; settings: Homo sapiens, SW-620, 48 h incubation, mean ± SEM of 3 independent experiments
Text: (§1) Three human cancer cell lines: colon cancer (SW620), prostate cancer (PC3), and lung cancer (NCI-H23) were used for sceening the cytotoxicity of the compounds. The cancer cells were purchased from American Type Culture Collection (Manassas, VA, USA). Other reagents/media for cell culture were obtained from GIBCO (Grand Island, New York, USA). The testing cancer cells were culture in Dulbecco’s Modified Eagle Medium until confluence. Then, they were trypsinized and suspended at the level of 3 × 10^4 cells/mL of cell culture medium. On day 0, cancer cells were seeded at a volume of 180 µL/well of 96-well plates and incubated for 24 h at 37 °C in a 5% CO2 incubator. On day 1, 20 µL of various concentrations of testing compounds were added to each well of the 96-well plates. Chemicals were dissolved in dimethyl sulfoxide (DMSO, stock) and diluted in culture medium (1% DMSO) before adding to the culture. After 48 h incubation, the sulforhodamine B assay was used for cell density determination with slight modifications[22]–[26]. The Probits were used for the calculation of IC50 values. The reported IC50 were the averages of three independent screening (SD ≤ 10%)[27].
(§2) Two series of compounds synthesized (4a–p and 5a–f) were evaluated for their cytotoxicity against three human cancer cell lines, including SW620 (colon cancer), PC3 (prostate cancer), NCI-H23 (lung cancer), using SRB method as described previously[22] with slight modifications[23]–[26].

NCI-H23 (lung cancer) = experiment: SRB cytotoxicity assay, NCI-H23; assay type: cell-based; settings: Homo sapiens, 48 h incubation, mean ± SEM of 3 independent experiments
Text: as §1, §2

[1] = Cytotoxicity on normal mesenchymal stem cells; assay type: cell-based; settings: human bone marrow-derived mesenchymal stem cells; mean ± SEM; read-out: Cytotoxicity (IC50) MSCs
Protocol: Overally, 5-fluorinated compounds (4i–p and 5d–f) were slightly more cytotoxic than non-fluorinated ones (4a–h, 5a–c). For compounds in series 4a–p, it was observed that, electron-releasing substituents (–OCH3, OH) were generally better than electron-withdrawing groups (–Cl) for cytotoxicity. Especially, compounds with 2-OH substituents produced the best cytotoxicity. The addition of either 4-OCH3 or 3-allyl groups further enhanced cytotoxicity of the related compounds (4g, 4h and 4o, 4p).

PC3 (prostate cancer) = experiment: SRB cytotoxicity assay, PC3; assay type: cell-based; settings: Homo sapiens, 48 h incubation, mean ± SEM of 3 independent experiments
Text: as §1, §2

Compound: O=C(CN1C(=O)Cc2ccccc21)N/N=C/c1ccccc1 [Compound 4a, (E)-N'-Benzylidene-2-(2-oxoindolin-1-yl)acetohydrazide]
melting point: 167 to 168 °C | IC50 (SW620 (colon cancer)): 10.1 ± 0.91 µM | IC50 (NCI-H23 (lung cancer)): 10.4 ± 0.87 µM | IC50 [1]: > 30 µM | IC50 (PC3 (prostate cancer)): 12.2 ± 0.99 µM

Compound: O=C(CN1C(=O)Cc2ccccc21)N/N=C/c1ccccc1Cl [Compound 4b, (E)-N'-(2-Chlorobenzylidene)-2-(2-oxoindolin-1-yl)acetohydrazide]
melting point: 179 to 181 °C | IC50 (SW620 (colon cancer)): 9.91 ± 0.76 µM | IC50 (NCI-H23 (lung cancer)): 8.34 ± 0.52 µM | IC50 [1]: > 30 µM | IC50 (PC3 (prostate cancer)): 8.72 ± 0.71 µM

Compound: O=C(CN1C(=O)Cc2ccccc21)N/N=C/c1cccc(Cl)c1 [Compound 4c, (E)-N'-(3-Chlorobenzylidene)-2-(2-oxoindolin-1-yl)acetohydrazide]
melting point: 181 to 182 °C | IC50 (SW620 (colon cancer)): 15.3 ± 1.01 µM | IC50 (NCI-H23 (lung cancer)): 13.5 ± 1.11 µM | IC50 [1]: > 30 µM | IC50 (PC3 (prostate cancer)): 14.2 ± 1 µM

Compound: O=C(CN1C(=O)Cc2ccccc21)N/N=C/c1ccc(Cl)cc1 [Compound 4d, (E)-N'-(4-Chlorobenzylidene)-2-(2-oxoindolin-1-yl)acetohydrazide]
melting point: 185 to 187 °C | IC50 (SW620 (colon cancer)): 16.3 ± 1.21 µM | IC50 (NCI-H23 (lung cancer)): 15.6 ± 1.43 µM | IC50 [1]: > 30 µM | IC50 (PC3 (prostate cancer)): 17.4 ± 1.34 µM

Compound: COc1ccc(/C=N/NC(=O)CN2C(=O)Cc3ccccc32)cc1 [Compound 4e, (E)-N'-(4-Methoxybenzylidene)-2-(2-oxoindolin-1-yl)acetohydrazide]
melting point: 168 to 169 °C | IC50 (SW620 (colon cancer)): 9.01 ± 0.74 µM | IC50 (NCI-H23 (lung cancer)): 8.72 ± 0.33 µM | IC50 [1]: > 30 µM | IC50 (PC3 (prostate cancer)): 7.43 ± 0.45 µM

Compound: COc1ccc(/C=N/NC(=O)CN2C(=O)Cc3ccccc32)c(O)c1 [Compound 4g, (E)-N'-(2-Hydroxy-4-methoxybenzylidene)-2-(2-oxoindolin-1-yl)acetohydrazide]
melting point: 177 to 178 °C | IC50 (SW620 (colon cancer)): 3.34 ± 0.31 µM | IC50 (NCI-H23 (lung cancer)): 2.59 ± 0.21 µM | IC50 [1]: 15.5 ± 0.64 µM | IC50 (PC3 (prostate cancer)): 4.32 ± 0.34 µM

Compound: O=C(CN1C(=O)Cc2cc(F)ccc21)N/N=C/c1ccccc1 [Compound 4i, (E)-N'-Benzylidene-2-(5-fluoro-2-oxoindolin-1-yl)acetohydrazide]
melting point: 173 to 174 °C | IC50 (SW620 (colon cancer)): 9.54 ± 0.74 µM | IC50 (NCI-H23 (lung cancer)): 8.44 ± 0.67 µM | IC50 [1]: > 30 µM | IC50 (PC3 (prostate cancer)): 8.56 ± 0.52 µM

Compound: O=C(CN1C(=O)Cc2cc(F)ccc21)N/N=C/c1ccccc1Cl [Compound 4j, (E)-N'-(2-Chlorobenzylidene)-2-(5-fluoro-2-oxoindolin-1-yl)acetohydrazide]
melting point: 185 to 186 °C | IC50 (SW620 (colon cancer)): 7.56 ± 0.57 µM | IC50 (NCI-H23 (lung cancer)): 8 ± 0.98 µM | IC50 [1]: > 30 µM | IC50 (PC3 (prostate cancer)): 8.43 ± 0.59 µM

Compound: O=C(CN1C(=O)Cc2cc(F)ccc21)N/N=C/c1cccc(Cl)c1 [Compound 4k, (E)-N'-(3-Chlorobenzylidene)-2-(5-fluoro-2-oxoindolin-1-yl)acetohydrazide]
melting point: 187 to 188 °C | IC50 (SW620 (colon cancer)): 16.4 ± 1.19 µM | IC50 (NCI-H23 (lung cancer)): 17.4 ± 1.54 µM | IC50 [1]: > 30 µM | IC50 (PC3 (prostate cancer)): 16.4 ± 1.56 µM

Compound: O=C(CN1C(=O)Cc2cc(F)ccc21)N/N=C/c1ccc(Cl)cc1 [Compound 4l, (E)-N'-(4-Chlorobenzylidene)-2-(5-fluoro-2-oxoindolin-1-yl)acetohydrazide]
melting point: 191 to 192 °C | IC50 (SW620 (colon cancer)): 14.3 ± 1.21 µM | IC50 (NCI-H23 (lung cancer)): 16.4 ± 1.77 µM | IC50 [1]: > 30 µM | IC50 (PC3 (prostate cancer)): 17.8 ± 1.58 µM

Compound: COc1ccc(/C=N/NC(=O)CN2C(=O)Cc3cc(F)ccc32)cc1 [Compound 4m, (E)-N'-(4-Methoxybenzylidene)-2-(5-fluoro-2-oxoindolin-1-yl)acetohydrazide]
melting point: 175 to 176 °C | IC50 (SW620 (colon cancer)): 7.52 ± 0.63 µM | IC50 (NCI-H23 (lung cancer)): 7.43 ± 0.56 µM | IC50 [1]: > 30 µM | IC50 (PC3 (prostate cancer)): 7.33 ± 0.42 µM

The next lines start with results.

melting point: 191 to 192 °C
Compound: O=C(CN1C(=O)Cc2ccccc21)N/N=C1\C(=O)Nc2ccccc21 [Compound 5a, (Z)-2-(2-Oxoindolin-1-yl)-N'-(2-oxoindolin-3-ylidene)acetohydrazide]
IC50 (SW620 (colon cancer)): 16.4 ± 1.05 µM | IC50 (NCI-H23 (lung cancer)): 15.3 ± 1.32 µM | IC50 [1]: > 30 µM | IC50 (PC3 (prostate cancer)): 14.3 ± 1.21 µM

melting point: 201 to 202 °C
Compound: O=C(CN1C(=O)Cc2ccccc21)N/N=C1\C(=O)Nc2ccc(Cl)cc21 [Compound 5b, (Z)-N'-(5-Chloro-2-oxoindolin-3-ylidene)-2-(2-oxoindolin-1-yl)acetohydrazide]
IC50 (SW620 (colon cancer)): 17.4 ± 1.43 µM | IC50 (NCI-H23 (lung cancer)): 16.5 ± 1.33 µM | IC50 [1]: > 30 µM | IC50 (PC3 (prostate cancer)): 18.4 ± 1.53 µM

melting point: 198 to 199 °C
Compound: Cc1ccc2c(c1)/C(=N/NC(=O)CN1C(=O)Cc3ccccc31)C(=O)N2 [Compound 5c, (Z)-N'-(5-Methyl-2-oxoindolin-3-ylidene)-2-(2-oxoindolin-1-yl)acetohydrazide]
IC50 (SW620 (colon cancer)): 17.6 ± 1.32 µM | IC50 (NCI-H23 (lung cancer)): 18.4 ± 1.87 µM | IC50 [1]: > 30 µM | IC50 (PC3 (prostate cancer)): 19.6 ± 2.01 µM

melting point: 215 to 216 °C
Compound: O=C(CN1C(=O)Cc2cc(F)ccc21)N/N=C1\C(=O)Nc2ccccc21 [Compound 5d, (Z)-2-(5-Fluoro-2-oxoindolin-1-yl)-N'-(2-oxoindolin-3-ylidene)acetohydrazide]
IC50 (SW620 (colon cancer)): 12.4 ± 1.21 µM | IC50 (NCI-H23 (lung cancer)): 13.6 ± 1.31 µM | IC50 [1]: > 30 µM | IC50 (PC3 (prostate cancer)): 14.6 ± 1.27 µM

melting point: 221 to 222 °C
Compound: O=C(CN1C(=O)Cc2cc(F)ccc21)N/N=C1\C(=O)Nc2ccc(Cl)cc21 [Compound 5e, (Z)-N'-(5-Chloro-2-oxoindolin-3-ylidene)-2-(5-fluoro-2-oxoindolin-1-yl)acetohydrazide]
IC50 (SW620 (colon cancer)): 15.3 ± 1.5 µM | IC50 (NCI-H23 (lung cancer)): 15.5 ± 1.36 µM | IC50 [1]: > 30 µM | IC50 (PC3 (prostate cancer)): 14.7 ± 1.71 µM

melting point: 217 to 218 °C
Compound: Cc1ccc2c(c1)/C(=N/NC(=O)CN1C(=O)Cc3cc(F)ccc31)C(=O)N2 [Compound 5f, (Z)-2-(5-Fluoro-2-oxoindolin-1-yl)-N'-(5-methyl-2-oxoindolin-3-ylidene)acetohydrazide]
IC50 (SW620 (colon cancer)): 12.7 ± 1.22 µM | IC50 (NCI-H23 (lung cancer)): 14.9 ± 1.83 µM | IC50 [1]: > 30 µM | IC50 (PC3 (prostate cancer)): 15.3 ± 1.7 µM
